Reference: PMC10885153, “Membrane Permeability in a Large Macrocyclic Peptide Driven by a Saddle-Shaped Conformation” (Journal of the American Chemical Society, 2024)
Positions of bridges follow the written chain, without caps; N, C: chain ends. Non-standard residues stand in square brackets, D forms with d. Residues, ends and D or L forms follow the SMILES beside them. NMeC = CN[C@@H](CS)C(=O)O; NMeA = CN[C@@H](C)C(=O)O; dAbu = CC[C@@H](N)C(=O)O; dNMeA = CN[C@H](C)C(=O)O; Nva = CCC[C@H](N)C(=O)O; Abu = CC[C@H](N)C(=O)O; Nleu = CC(C)CNCC(=O)O; NPrGly = CCCNCC(=O)O; NEtG = CCNCC(=O)O

Tests used:
[1] = for %R_avg: PAMPA, 10 µM, pH 7.4
Method: (§1) Passive permeabilities of the 36 compounds were measured in multiplex as mixtures of six compounds each using the parallel artificial membrane permeability assay (PAMPA).[44]−[46]
(§2) Protocol is identical for both mixture and pure compound analysis.
(§3) Two of the following: Carbamazepine (CBZ), propranolol (Prop), and 1NMe35 were
(§4) included as internal standards and prepared as DMSO stocks at a concentration of 2 000 µM.
(§5) assay was carried out with a 96-well donor plate with 0.45 μ hydrophobic Immobilon-P membrane supports
(§6) (Millipore MAIPNTR10) and a 96-well Teflon acceptor plate (Millipore MSSACCEPTOR).
protocol then proceeded as follows:
(§7) Donor well solutions were prepared to a volume of 1 000 µL with the analytes as a solution in 1X
(§8) PBS pH 7.4 and 5% DMSO. To a 3 mL Eppendorf tube was added 950 µL of 1X PBS pH 7.4, 40
(§9) The solutions were vortexed and set aside.
Analyte – 10 µM per compound
(§10) A 1% solution of soy lecithin in dodecane was freshly prepared in a 3 mL Eppendorf tube and
(§11) sonicated (5 min) to ensure full dissolution of the lecithin. The donor membrane plate was turned
(§12) upside down and bottom of the membranes exposed. 5 µL of the 1% soy lecithin solution in
(§13) dodecane was then placed on the bottom of the membrane, allowing the drop to spread across the
(§14) full area of the membrane. Any membranes with visible damage were not used in the assay.
(§15) membranes were allowed to equilibrate for 5 min before loading.
(§16) Each well within the Teflon block acceptor plate that was to be used in the assay was then loaded
(§17) with 300 µL of 1X PBS pH 7.4 and 5% DMSO.
(§18) Working without break, 150 µL of each donor well solution was transferred from the to the 96-well
(§19) donor plate. Each mixture of interest was r un in quadruplicate, using a new well for each replicate.
(§20) As soon as the 96-well donor plate was finished being loaded, it was gently placed into the 96-well
(§21) Teflon acceptor plate, taking care not to trap any air bubbles beneath the membrane.
(§22) The donor/acceptor plates were covered gently with the lid to minimize evaporation and transferred
(§23) gently as a system to a sealed chamber and left to sit overnight at room temperature. The chamber
(§24) was kept from drying by placing a wet paper towel within to prevent evaporation.
(§25) After ~19-20 hours the donor plate was removed from the acceptor plate.
(§26) 50 µL of each well (donor and acceptor) were transferred to a 96 -well plate and diluted with 50 µL
(§27) of methanol prior to heat sealing and quantification by UPLC -MS.

in vitro = conditions: PAMPA, pH 7.4, PAMPA Pe_avg
Method: as §1, §2, §3, §4, §5, §6
protocol then proceeded as follows:
as §7, §8, §9
Analyte – 10 µM per compound
as §10, §11, §12, §13, §14, §15, §16, §17, §18, §19, §20, §21, §22, §23, §24, §25, §26, §27

Papp at 10 µM (in vitro) [×10⁻⁶ cm/s] | SMILES | also measured
– | CCOC(=O)[C@@H]1CSCC(=O)N[C@H](CC)C(=O)N(C)[C@@H](C)C(=O)N[C@H](CC(C)C)C(=O)N2CCC[C@@H]2C(=O)N(CC)CC(=O)N[C@@H](CC(C)C)C(=O)N(C)[C@@H](C)C(=O)N[C@@H](CC(C)C)C(=O)N1C [JF206_ADD_DDLL_Ethyl] ({CH2CO}-[dAbu][NMeA][dL][dP][NEtG]L[NMeA]L[NMeC]-OEt; thioether N-9) | PAMPA Pe_avg [1]: 0 cm/s
– | CCOC(=O)[C@@H]1CSCC(=O)N[C@H](CC)C(=O)N(C)[C@@H](C)C(=O)N[C@@H](CC(C)C)C(=O)N2CCC[C@@H]2C(=O)N(CC)CC(=O)N[C@H](CC(C)C)C(=O)N(C)[C@H](C)C(=O)N[C@@H](CC(C)C)C(=O)N1C [JF206_ADD_DLDD_Ethyl] ({CH2CO}-[dAbu][NMeA]L[dP][NEtG][dL][dNMeA]L[NMeC]-OEt; thioether N-9) | PAMPA Pe_avg [1]: 0 cm/s
– | CCOC(=O)[C@@H]1CSCC(=O)N[C@@H](CC)C(=O)N(C)[C@@H](C)C(=O)N[C@H](CC(C)C)C(=O)N2CCC[C@@H]2C(=O)N(CC)CC(=O)N[C@@H](CC(C)C)C(=O)N(C)[C@H](C)C(=O)N[C@@H](CC(C)C)C(=O)N1C [JF206_ADL_LDLD_Ethyl] ({CH2CO}-[Abu][NMeA][dL][dP][NEtG]L[dNMeA]L[NMeC]-OEt; thioether N-9) | PAMPA Pe_avg [1]: 0 cm/s
0.075 | CCOC(=O)[C@@H]1CSCC(=O)N[C@H](CC)C(=O)N(C)[C@@H](C)C(=O)N[C@H](CC(C)C)C(=O)N2CCC[C@H]2C(=O)N(CC(C)C)CC(=O)N[C@@H](CC(C)C)C(=O)N(C)[C@@H](C)C(=O)N[C@@H](CC(C)C)C(=O)N1C [JF206_ALD_DDLL_Isobutyl] ({CH2CO}-[dAbu][NMeA][dL]P[Nleu]L[NMeA]L[NMeC]-OEt; thioether N-9) | –
– | CCOC(=O)[C@@H]1CSCC(=O)N[C@H](CC)C(=O)N(C)[C@@H](C)C(=O)N[C@@H](CC(C)C)C(=O)N2CCC[C@H]2C(=O)N(CC)CC(=O)N[C@H](CC(C)C)C(=O)N(C)[C@H](C)C(=O)N[C@@H](CC(C)C)C(=O)N1C [JF206_ALD_DLDD_Ethyl] ({CH2CO}-[dAbu][NMeA]LP[NEtG][dL][dNMeA]L[NMeC]-OEt; thioether N-9) | PAMPA Pe_avg [1]: 0 cm/s
0.038 | CCOC(=O)[C@@H]1CSCC(=O)N[C@H](CC)C(=O)N(C)[C@@H](C)C(=O)N[C@@H](CC(C)C)C(=O)N2CCC[C@H]2C(=O)N(CC(C)C)CC(=O)N[C@H](CC(C)C)C(=O)N(C)[C@H](C)C(=O)N[C@@H](CC(C)C)C(=O)N1C [JF206_ALD_DLDD_Isobutyl] ({CH2CO}-[dAbu][NMeA]LP[Nleu][dL][dNMeA]L[NMeC]-OEt; thioether N-9) | –
0.027 | CCOC(=O)[C@@H]1CSCC(=O)N[C@H](CC)C(=O)N(C)[C@@H](C)C(=O)N[C@@H](CC(C)C)C(=O)N2CCC[C@H]2C(=O)N(CC)CC(=O)N[C@H](CC(C)C)C(=O)N(C)[C@@H](C)C(=O)N[C@@H](CC(C)C)C(=O)N1C [JF206_ALD_DLDL_Ethyl] ({CH2CO}-[dAbu][NMeA]LP[NEtG][dL][NMeA]L[NMeC]-OEt; thioether N-9) | –
0.248 | CCOC(=O)[C@@H]1CSCC(=O)N[C@H](CC)C(=O)N(C)[C@@H](C)C(=O)N[C@@H](CC(C)C)C(=O)N2CCC[C@H]2C(=O)N(CC(C)C)CC(=O)N[C@H](CC(C)C)C(=O)N(C)[C@@H](C)C(=O)N[C@@H](CC(C)C)C(=O)N1C [JF206_ALD_DLDL_Isobutyl] ({CH2CO}-[dAbu][NMeA]LP[Nleu][dL][NMeA]L[NMeC]-OEt; thioether N-9) | –
0.016 | CCOC(=O)[C@@H]1CSCC(=O)N[C@H](CC)C(=O)N(C)[C@@H](C)C(=O)N[C@@H](CC(C)C)C(=O)N2CCC[C@H]2C(=O)N(CC)CC(=O)N[C@@H](CC(C)C)C(=O)N(C)[C@H](C)C(=O)N[C@@H](CC(C)C)C(=O)N1C [JF206_ALD_DLLD_Ethyl] ({CH2CO}-[dAbu][NMeA]LP[NEtG]L[dNMeA]L[NMeC]-OEt; thioether N-9) | –
0.117 | CCOC(=O)[C@@H]1CSCC(=O)N[C@H](CC)C(=O)N(C)[C@@H](C)C(=O)N[C@@H](CC(C)C)C(=O)N2CCC[C@H]2C(=O)N(CC(C)C)CC(=O)N[C@@H](CC(C)C)C(=O)N(C)[C@H](C)C(=O)N[C@@H](CC(C)C)C(=O)N1C [JF206_ALD_DLLD_Isobutyl] ({CH2CO}-[dAbu][NMeA]LP[Nleu]L[dNMeA]L[NMeC]-OEt; thioether N-9) | –
0.598 | CCOC(=O)[C@@H]1CSCC(=O)N[C@H](CC)C(=O)N(C)[C@@H](C)C(=O)N[C@@H](CC(C)C)C(=O)N2CCC[C@H]2C(=O)N(CC(C)C)CC(=O)N[C@@H](CC(C)C)C(=O)N(C)[C@@H](C)C(=O)N[C@@H](CC(C)C)C(=O)N1C [JF206_ALD_DLLL_Isobutyl] ({CH2CO}-[dAbu][NMeA]LP[Nleu]L[NMeA]L[NMeC]-OEt; thioether N-9) | –
0.623 | CCOC(=O)[C@@H]1CSCC(=O)N[C@@H](CC)C(=O)N(C)[C@@H](C)C(=O)N[C@H](CC(C)C)C(=O)N2CCC[C@H]2C(=O)N(CC)CC(=O)N[C@H](CC(C)C)C(=O)N(C)[C@H](C)C(=O)N[C@@H](CC(C)C)C(=O)N1C [JF206_ALL_LDDD_Ethyl] ({CH2CO}-[Abu][NMeA][dL]P[NEtG][dL][dNMeA]L[NMeC]-OEt; thioether N-9) | –
0.012 | CCOC(=O)[C@@H]1CSCC(=O)N[C@@H](CC)C(=O)N(C)[C@@H](C)C(=O)N[C@H](CC(C)C)C(=O)N2CCC[C@H]2C(=O)N(CC)CC(=O)N[C@@H](CC(C)C)C(=O)N(C)[C@H](C)C(=O)N[C@@H](CC(C)C)C(=O)N1C [JF206_ALL_LDLD_Ethyl] ({CH2CO}-[Abu][NMeA][dL]P[NEtG]L[dNMeA]L[NMeC]-OEt; thioether N-9) | –
0.015 | CCOC(=O)[C@@H]1CSCC(=O)N[C@@H](CC)C(=O)N(C)[C@@H](C)C(=O)N[C@H](CC(C)C)C(=O)N2CCC[C@H]2C(=O)N(CC)CC(=O)N[C@@H](CC(C)C)C(=O)N(C)[C@@H](C)C(=O)N[C@@H](CC(C)C)C(=O)N1C [JF206_ALL_LDLL_Ethyl] ({CH2CO}-[Abu][NMeA][dL]P[NEtG]L[NMeA]L[NMeC]-OEt; thioether N-9) | –
0.00468 | CCOC(=O)[C@@H]1CSCC(=O)N[C@@H](CC)C(=O)N(C)[C@@H](C)C(=O)N[C@@H](CC(C)C)C(=O)N2CCC[C@H]2C(=O)N(CC)CC(=O)N[C@H](CC(C)C)C(=O)N(C)[C@H](C)C(=O)N[C@@H](CC(C)C)C(=O)N1C [JF206_ALL_LLDD_Ethyl] ({CH2CO}-[Abu][NMeA]LP[NEtG][dL][dNMeA]L[NMeC]-OEt; thioether N-9) | –
0.182 | CCOC(=O)[C@@H]1CSCC(=O)N[C@@H](CC)C(=O)N(C)[C@@H](C)C(=O)N[C@@H](CC(C)C)C(=O)N2CCC[C@H]2C(=O)N(CC(C)C)CC(=O)N[C@H](CC(C)C)C(=O)N(C)[C@H](C)C(=O)N[C@@H](CC(C)C)C(=O)N1C [JF206_ALL_LLDD_Isobutyl] ({CH2CO}-[Abu][NMeA]LP[Nleu][dL][dNMeA]L[NMeC]-OEt; thioether N-9) | –
0.003 | CCOC(=O)[C@@H]1CSCC(=O)N[C@@H](CC)C(=O)N(C)[C@@H](C)C(=O)N[C@@H](CC(C)C)C(=O)N2CCC[C@H]2C(=O)N(CC)CC(=O)N[C@H](CC(C)C)C(=O)N(C)[C@@H](C)C(=O)N[C@@H](CC(C)C)C(=O)N1C [JF206_ALL_LLDL_Ethyl] ({CH2CO}-[Abu][NMeA]LP[NEtG][dL][NMeA]L[NMeC]-OEt; thioether N-9) | –
0.093 | CCOC(=O)[C@@H]1CSCC(=O)N[C@@H](CC)C(=O)N(C)[C@@H](C)C(=O)N[C@@H](CC(C)C)C(=O)N2CCC[C@H]2C(=O)N(CC(C)C)CC(=O)N[C@H](CC(C)C)C(=O)N(C)[C@@H](C)C(=O)N[C@@H](CC(C)C)C(=O)N1C [JF206_ALL_LLDL_Isobutyl] ({CH2CO}-[Abu][NMeA]LP[Nleu][dL][NMeA]L[NMeC]-OEt; thioether N-9) | –
0.014 | CCOC(=O)[C@@H]1CSCC(=O)N[C@@H](CC)C(=O)N(C)[C@@H](C)C(=O)N[C@@H](CC(C)C)C(=O)N2CCC[C@H]2C(=O)N(CC)CC(=O)N[C@@H](CC(C)C)C(=O)N(C)[C@H](C)C(=O)N[C@@H](CC(C)C)C(=O)N1C [JF206_ALL_LLLD_Ethyl] ({CH2CO}-[Abu][NMeA]LP[NEtG]L[dNMeA]L[NMeC]-OEt; thioether N-9) | –
0.139 | CCOC(=O)[C@@H]1CSCC(=O)N[C@@H](CC)C(=O)N(C)[C@@H](C)C(=O)N[C@@H](CC(C)C)C(=O)N2CCC[C@H]2C(=O)N(CC(C)C)CC(=O)N[C@@H](CC(C)C)C(=O)N(C)[C@H](C)C(=O)N[C@@H](CC(C)C)C(=O)N1C [JF206_ALL_LLLD_Isobutyl] ({CH2CO}-[Abu][NMeA]LP[Nleu]L[dNMeA]L[NMeC]-OEt; thioether N-9) | –
0.678 | CCOC(=O)[C@@H]1CSCC(=O)N[C@@H](CC)C(=O)N(C)[C@@H](C)C(=O)N[C@@H](CC(C)C)C(=O)N2CCC[C@H]2C(=O)N(CC)CC(=O)N[C@@H](CC(C)C)C(=O)N(C)[C@@H](C)C(=O)N[C@@H](CC(C)C)C(=O)N1C [JF206_ALL_LLLL_Ethyl] ({CH2CO}-[Abu][NMeA]LP[NEtG]L[NMeA]L[NMeC]-OEt; thioether N-9) | –
– | CCC[C@@H]1NC(=O)[C@H](C)N(C)C(=O)[C@H](CC(C)C)NC(=O)CSC[C@@H](C(=O)OCC)N(C)C(=O)[C@H](CC(C)C)NC(=O)[C@H](C)N(C)C(=O)[C@H](CC)NC(=O)CN(CC)C(=O)[C@H]2CCCN2C1=O [LA01, O=C(N(C)[C@H](C(OCC)=O)CSCC(N[C@H](C(N(C)[C@@H](C)C(N[C@@H](CCC)C(N1[C@H](CCC1)C(N(CC)CC(N[C@H]2CC)=O)=O)=O)=O)=O)CC(C)C)=O)[C@H](CC(C)C)NC([C@H](C)N(C)C2=O)=O] ({CH2CO}-L[NMeA][Nva][dP][NEtG][Abu][NMeA]L[NMeC]-OEt; thioether N-9) | %R_avg [1]: 33.1%
– | CCC[C@@H]1NC(=O)[C@H](C)N(C)C(=O)[C@H](CC(C)C)NC(=O)CSC[C@@H](C(=O)OCC)N(C)C(=O)[C@H](CC(C)C)NC(=O)[C@H](C)N(C)C(=O)[C@H](CC)NC(=O)CN(CCC)C(=O)[C@H]2CCCN2C1=O [LA03, O=C(N(C)[C@H](C(OCC)=O)CSCC(N[C@H](C(N(C)[C@@H](C)C(N[C@@H](CCC)C(N1[C@H](CCC1)C(N(CCC)CC(N[C@H]2CC)=O)=O)=O)=O)=O)CC(C)C)=O)[C@H](CC(C)C)NC([C@H](C)N(C)C2=O)=O] ({CH2CO}-L[NMeA][Nva][dP][NPrGly][Abu][NMeA]L[NMeC]-OEt; thioether N-9) | %R_avg [1]: 25.8%
